This note sets out measurements from patent publication US8202865B2, “Oxadiazole derivatives” (Merck Serono SA, priority 2007, dated 2012).

pEC50, pKi: −log10 of the molar value. Structures can show the parent of a compound that is named as a salt.

Assay [1] addresses T1, S1P1 (Homo sapiens, UniProt P21453).
T1 construct: expressed in transfected cells; host or cells: CHO cells (membranes)
The experiment in a line: Receptor binding assay, [33P]sphingosine 1-phosphate, membranes, WGA SPA beads. As to conditions: membranes from CHO cells expressing S1P1; 25 pM [33P]S1P; 60 min RT. On the procedure:
(§1) Receptor binding assay: Membranes were prepared from CHO cells expressing S1P1 or S1P3 for use in ligand and […] binding studies. Cells were suspended in 50 mM TRIS, pH 7.4, 2 mM EDTA, 250 mM Sucrose (buffer A) and 1× Complete protease inhibitor cocktail (Roche), and disrupted at 4° C. by N2 decompression using a cell disruption bomb (Parr Instrument). Following centrifugation at 1000 RPM for 10 min at 4° C., the supernatant was suspended in buffer A and centrifuged again at 19000 RPM for 60 min at 4° C. The pellet was then suspended in 10 mM HEPES, pH 7.4, 1 mM EDTA, 250 mM Sucrose (Buffer B), and 1× Complete EDTA-free protease inhibitor cocktail and homogenized using a potter. Membranes were flash frozen in liquid N2 and stored at −80° C. [33P]sphingosine 1-phosphate (3000 Ci/mmol; American Radiolabeled Chemicals, Inc.) was added to test compounds in DMSO. Membranes and WGA SPA beads (GE Healthcare) were added to give a final volume of 100 μl in 96-well plates with assay concentrations of 25 pM or 10 pM [33P]sphingosine 1-phosphate (respectively for S1P1 or S1P3), 50 mM HEPES, pH 7.5, 5 mM MgCl2, 100 mM NaCl, 0.4% fatty acid-free BSA, 1-5 μg/well of proteins and 100 μg/well of WGA SPA beads. Binding was performed for 60 min at RT on a shaker and bound radioactivity was measured on a PerkinElmer 1450 MicroBeta counter. Specific binding was calculated by subtracting remaining radioactivity in the presence of 1000-fold excess of unlabeled S1P. Binding data were analyzed using the GraphPad Prism program.

The target of another assay is T2, S1P3 (Homo sapiens, UniProt Q99500).
T2 construct: expressed in transfected cells; host or cells: CHO cells (membranes)
The experiment in a line: 35S-GTPγS binding, S1P3 membranes. As to conditions: membranes from CHO cells expressing S1P3; 60 min 30° C. The class given is biochemical. How it is done: as §1
Measurements of ^35S-GTPγS Binding: Membranes (1 to 10 μg protein) prepared as described above, were incubated in 96-well Scintiplates (PerkinElmer) with test compounds diluted in DMSO, in 180 μl of 20 mM HEPES, pH 7.4, 10 mM MgCl2, 2 μg/well Saponin, 0.2% fatty acid free BSA (Assay buffer), 140 mM NaCl and 1.7 μM GDP. The assay was initiated with the addition of 20 μl of 1.5 nM [35S]-GTPγS (1100 Ci/mmol; GE Healthcare) in assay buffer. After 60 min incubation at 30° C. on a shaker, plates were centrifuged for 10 min at 2000 RPM. Supernatant was discarded and membrane bound radioactivity was measured on a PerkinElmer 1450 MicroBeta counter. Triplicate samples were averaged and expressed as % response relative to S1P activation in absence of compound (n=2).
In general terms: GTPγS resists hydrolysis and so accumulates on activated G proteins.

The target in assay [2] is T1, S1P1. The experiment in a line: 35S-GTPγS binding, S1P1 membranes. It counts as biochemical. As to conditions: membranes from CHO cells expressing S1P1; 60 min 30° C. The method, boiled down: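 CHO-cell membranes expressing S1P1 or S1P3 (1-10 μg) incubated with compounds in 20 mM HEPES pH 7.4, 10 mM MgCl2, 140 mM NaCl, saponin, 0.2% BSA, 1.7 μM GDP and [35S]-GTPγS (20 μl of 1.5 nM added), 60 min at 30° C. Bound radioactivity expressed as % of S1P activation.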

T1 sequence (P21453 whole entry, species assumed): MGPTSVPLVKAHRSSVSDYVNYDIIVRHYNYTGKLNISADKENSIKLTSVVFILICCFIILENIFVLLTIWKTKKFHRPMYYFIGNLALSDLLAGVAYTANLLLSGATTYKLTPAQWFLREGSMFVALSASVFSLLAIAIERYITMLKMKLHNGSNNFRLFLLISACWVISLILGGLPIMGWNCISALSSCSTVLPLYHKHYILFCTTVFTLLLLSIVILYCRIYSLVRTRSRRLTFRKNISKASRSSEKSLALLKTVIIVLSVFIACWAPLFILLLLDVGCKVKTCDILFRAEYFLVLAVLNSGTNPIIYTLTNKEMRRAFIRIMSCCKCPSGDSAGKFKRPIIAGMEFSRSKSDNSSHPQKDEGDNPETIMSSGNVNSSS
T2 sequence (Q99500 whole entry, species assumed): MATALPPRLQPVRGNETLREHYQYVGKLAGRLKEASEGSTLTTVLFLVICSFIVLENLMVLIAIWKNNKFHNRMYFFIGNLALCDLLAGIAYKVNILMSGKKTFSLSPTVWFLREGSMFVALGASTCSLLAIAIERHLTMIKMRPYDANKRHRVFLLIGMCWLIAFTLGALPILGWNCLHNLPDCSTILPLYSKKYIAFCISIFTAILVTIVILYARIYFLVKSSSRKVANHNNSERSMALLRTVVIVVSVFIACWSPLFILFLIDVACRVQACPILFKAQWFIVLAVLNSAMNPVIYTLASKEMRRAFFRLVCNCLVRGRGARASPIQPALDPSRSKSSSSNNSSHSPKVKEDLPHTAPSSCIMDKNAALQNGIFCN

A word on the pKi: it is −log10 of the Ki, conventionally taken in molar units. As usually defined, the pEC50 is the negative decadic logarithm of the EC50, by convention in mol/L. Read a high pEC50 as a small EC50. In turn, `COCc1cc(-c2nc(-c3ccc(C(N)=O)cc3)no2)ccc1-c1ccccc1C` [Example 178, 4-{5-[2-(methoxymethyl)-2′-methylbiphenyl-4-yl]-1,2,4-oxadiazol-3-yl}benzamide] had a pKi on S1P1 [1] of 9.00. The pEC50 at S1P3 is 6.85; at S1P1 [2] it was 8.32.
`COCc1cc(-c2nc(-c3ccc(F)c(CN(C)CC(=O)O)c3)no2)ccc1-c1ccccc1C` [Example 146, N-(2-fluoro-5-{5-[2-(methoxymethyl)-2′-methylbiphenyl-4-yl]-1,2,4-oxadiazol-3-yl}benzyl)-N-methylglycine, Hydrochloride salt] had a negative logarithm of the Ki (pKi) at S1P1 [1] of 9.10. Also, the pEC50 on S1P3 is 6.37; on S1P1 [2] it was 8.60.
The compound `Cc1ccccc1-c1ccc(-c2nc(-c3ccc(C(=O)O)c(F)c3)no2)cc1COC(C)C` [Example 59, 2-fluoro-4-{5-[2-(isopropoxymethyl)-2′-methylbiphenyl-4-yl]-1,2,4-oxadiazol-3-yl}benzoic acid] gave a pKi on S1P1 [1] of 6.74. The pEC50 on S1P3 is 6.12; at S1P1 [2], 6.54.
For the compound `COCc1cc(-c2nc(-c3cccc(CN(C)CCO)c3)no2)ccc1-c1ccccc1C` [Example 186, 2-[(3-{5-[2-(methoxymethyl)-2′-methylbiphenyl-4-yl]-1,2,4-oxadiazol-3-yl}benzyl)(methyl)amino]ethanol, Hydrochloride salt], the pKi at S1P1 [1] is 9.10. For the same compound, the pEC50 on S1P3 was 5.79; at S1P1 [2], 8.96.
On S1P1 [1], `COCc1cc(-c2nc(-c3ccc(C(=O)NCCC(=O)O)c(F)c3)no2)ccc1-c1ccccc1C` [Example 119, N-(2-fluoro-4-{5-[2-(methoxymethyl)-2′-methylbiphenyl-4-yl]-1,2,4-oxadiazol-3-yl}benzoyl)-beta-alanine] had a negative-log Ki (pKi) of 8.70. Besides, the pEC50 is 6.30 on S1P3 and 8.14 at S1P1 [2].
Take `CC(C)Oc1ncc(-c2nc(-c3ccc(OCC(=O)O)c(F)c3)no2)cc1Cl` [Example 53, {4-[5-(5-chloro-6-isopropoxypyridin-3-yl)-1,2,4-oxadiazol-3-yl]-2-fluorophenoxy}acetic acid]: the pEC50 at S1P3 was less than 4.70; on S1P1 [2] it was 6.53.
As for `COc1cc(-c2nc(-c3ccc(C(=O)O)c(F)c3)no2)ccc1-c1cscc1C` [Example 12, 2-fluoro-4-{5-[3-methoxy-4-(4-methyl-3-thienyl)phenyl]-1,2,4-oxadiazol-3-yl}benzoic acid], at S1P1 [1], the pKi was 7.22. Further, the pEC50 is less than 4.52 on S1P3 and 6.83 at S1P1 [2].
`CC1CCCCN1c1ccc(-c2nc(-c3ccc(C(=O)O)c(F)c3)no2)cc1[N+](=O)[O-]` (centres unmarked) [Example 15, 2-fluoro-4-{5-[4-(2-methylpiperidin-1-yl)-3-nitrophenyl]-1,2,4-oxadiazol-3-yl}benzoic acid]: the pEC50 was less than 4.52 on S1P3 and 5.91 at S1P1 [2].
`COCc1cc(-c2nc(-c3ccc(C(=O)O)c(Cl)c3)no2)ccc1-c1ccccc1C` [Example 69, 2-chloro-4-{5-[2-(methoxymethyl)-2′-methylbiphenyl-4-yl]-1,2,4-oxadiazol-3-yl}benzoic acid] gave a negative-log Ki (pKi) on S1P1 [1] of 7.59. Also, the pEC50 was 5.58 at S1P3 and 7.47 at S1P1 [2].
As to `COCc1cc(-c2nc(-c3ccc(OCCCC(=O)O)c(F)c3)no2)ccc1-c1ccccc1C` [Example 168, 4-(2-fluoro-4-{5-[2-(methoxymethyl)-2′-methylbiphenyl-4-yl]-1,2,4-oxadiazol-3-yl}phenoxy)butanoic acid], the negative logarithm of the EC50 (pEC50) was 6.66 on S1P3 and 8.11 at S1P1 [2].
In the case of `Cc1ccccc1-c1ccc(-c2nc(-c3ccc(C(=O)NCCC(=O)O)c(F)c3)no2)cc1C` [Example 55, N-{4-[5-(2,2′-dimethylbiphenyl-4-yl)-1,2,4-oxadiazol-3-yl]-2-fluorobenzoyl}-beta-alanine], the pEC50 at S1P3 was 4.90; at S1P1 [2] it was 7.28.
`Cc1ccccc1-c1ccc(-c2nc(-c3ccc(C(=O)NCC(=O)O)c(F)c3)no2)cc1C` [Example 54, N-{4-[5-(2,2′-dimethylbiphenyl-4-yl)-1,2,4-oxadiazol-3-yl]-2-fluorobenzoyl}glycine]: the pEC50 on S1P3 is 5.19; at S1P1 [2], 6.77.
Compound `COCc1cc(-c2nc(-c3cccc(CCO)c3)no2)ccc1-c1ccccc1C` [Example 190, 2-(3-{5-[2-(methoxymethyl)-2′-methylbiphenyl-4-yl]-1,2,4-oxadiazol-3-yl}phenyl)ethanol] gave a negative-log Ki (pKi) on S1P1 [1] of 8.37. In addition, at S1P1 [2], the negative logarithm of the EC50 (pEC50) was 9.15.
In the same order, the values of `COCc1cc(-c2nc(-c3ccc(CO)cc3)no2)ccc1-c1ccccc1C` [Example 191, (4-{5-[2-(methoxymethyl)-2′-methylbiphenyl-4-yl]-1,2,4-oxadiazol-3-yl}phenyl)methanol] are 8.15 and 8.68.
Regarding `COc1ccccc1-c1ccc(-c2nc(-c3ccc(C(=O)O)c(F)c3)no2)cc1C` [Example 7, 2-fluoro-4-[5-(2′-methoxy-2-methylbiphenyl-4-yl)-1,2,4-oxadiazol-3-yl]benzoic acid], the negative-log EC50 (pEC50) is less than 4.52 on S1P3 and 6.03 at S1P1 [2].
Take `CCC(C)Oc1ncc(-c2nc(-c3ccc(OCC(=O)O)c(F)c3)no2)cc1Cl` (centres unmarked) [Example 50, {4-[5-(6-sec-butoxy-5-chloropyridin-3-yl)-1,2,4-oxadiazol-3-yl]-2-fluorophenoxy}acetic acid]: the negative logarithm of the Ki (pKi) at S1P1 [1] was 7.30. This compound also had a negative logarithm of the EC50 (pEC50) on S1P1 [2] of 6.58.
Compound `CC(C)COc1ncc(-c2nc(-c3ccc(C(=O)O)c(F)c3)no2)cc1Cl` [Example 34, 4-[5-(5-chloro-6-isobutoxypyridin-3-yl)-1,2,4-oxadiazol-3-yl]-2-fluorobenzoic acid] had a pKi on S1P1 [1] of 5.53. Also, at S1P1 [2], the pEC50 is 5.30.
At S1P1 [1], `COCc1cc(-c2nc(-c3cccc(OCC(=O)O)c3)no2)ccc1-c1ccccc1C` [Example 167, (3-{5-[2-(methoxymethyl)-2′-methylbiphenyl-4-yl]-1,2,4-oxadiazol-3-yl}phenoxy)acetic acid] gave a negative logarithm of the Ki (pKi) of 8.00. On S1P1 [2], this compound gave a pEC50 of 7.65.
In the case of `CC1CCCCN1c1ccc(-c2nc(-c3cccc(CN(C)CC(=O)O)c3)no2)cc1NS(C)(=O)=O` (centres unmarked) [Example 57, N-methyl-N-[3-(5-{4-(2-methylpiperidin-1-yl)-3-[(methylsulfonyl)amino]phenyl}-1,2,4-oxadiazol-3-yl)benzyl]glycine, Hydrochloride salt], the pKi on S1P1 [1] was 8.22. Further, the pEC50 at S1P1 [2] is 8.40.
On to `COCc1cc(-c2nc(-c3ccc(F)c(CN(C)CC(=O)O)c3)no2)ccc1N1CCCCC1C` (centres unmarked) [Example 152, N-(2-fluoro-5-{5-[3-(methoxymethyl)-4-(2-methylpiperidin-1-yl)phenyl]-1,2,4-oxadiazol-3-yl}benzyl)-N-methylglycine, Dihydrochloride salt], for which the negative logarithm of the EC50 (pEC50) at S1P3 was 6.65; at S1P1 [2] it was 9.22.
`CC1CCCCN1c1ccc(-c2nc(-c3ccc(S(N)(=O)=O)cc3)no2)cc1NS(C)(=O)=O` (centres unmarked) [Example 37, 4-(5-{4-(2-methylpiperidin-1-yl)-3-[(methylsulfonyl)amino]phenyl}-1,2,4-oxadiazol-3-yl)benzenesulfonamide]: the pKi at S1P1 [1] is 8.00. At S1P1 [2], this compound gave a pEC50 of 8.80.
Take `COCc1ccccc1-c1ccc(-c2nc(-c3ccc(C(=O)O)c(F)c3)no2)cc1COC` [Example 85, 4-{5-[2,2′-bis(methoxymethyl)biphenyl-4-yl]-1,2,4-oxadiazol-3-yl}-2-fluorobenzoic acid]: the negative-log EC50 (pEC50) on S1P3 was 5.64; at S1P1 [2] it was 6.25.
In the same order, the values of `Cc1ccccc1-c1ccc(-c2nc(-c3ccc(C(=O)O)c(F)c3)no2)cc1[N+](=O)[O-]` [Example 11, 2-fluoro-4-[5-(2′-methyl-2-nitrobiphenyl-4-yl)-1,2,4-oxadiazol-3-yl]benzoic acid] are less than 4.52 and 6.19.
